Assay results taken from patent US20080096903A1, “SULFAMOYL-CONTAINING DERIVATIVES AND USES THEREOF” (Wyeth, priority 2006, published 2008).
pIC50: −log10 of the molar value.

Assays:
[1] = target: HSP90alpha protein (Homo sapiens, UniProt P07900); assay: Hsp90alpha and BODIPY-Geldanamycin Fluorescent Polarization Binding Assay; conditions: 5 nM BODIPY GA, 30 nM Hsp90alpha
Experimental: Hsp90alpha and BODIPY-Geldanamycin Fluorescent Polarization Binding Assay Materials • HSP90alpha protein (Stressgen SPP-776) and BODIPY Labeled Geldanamycin (GA) was added to assay buffer stock (stored at 4 C): 20 mM Hepes pH 7.3, 50 mM KCl, 20 mM NaMoO4, 0.01% NP40 • Working Assay buffer: assay buffer stock @RT with freshly added 2 mM DTT and 0.1 mg/ml • Bovine Gamma Globulin (Panvera P2045, 5 mg/ml) • Black 96well micro titer plates (Thermo #7205, vwr# 25227-304) Sample Set-up and Controls • Competitive Binding Samples: 5 nM GA and 30 nM Hsp90alpha and inhibitor • Control Samples: buffer only, BODIPY GA only, BODIPY GA plus Hsp90alpha, BODIPY GA plus • Hsp90alpha and unlabeled GA Protocol 1. Prepare working assay buffer with Hsp90alpha protein at a final concentration of 30 nM per well in 100 ul final volume. Add 85 ul of this solution per well to 96 well black micro titer plate. (for 20 ml assay buffer add 400 ul 1 M DTT stk and 400 ul 5 mg/ml BGG stk) (1 mg/ml Hsp90 stock=˜11 uM protein; want 0.03 uM final in 100 ul, so adjust to 0.035 uM in 85 ul which is 1:314 fold dilution into assay buffer=64 ul protein plus 20 ml buffer to dispense 85 ul/well). 2. Add 5 ul of inhibitors @ 20× final desired concentration. For 10 ug/ml start, the overall dilution from 1 mg/ml stocks is 1:100. […] Use Wallac Envision to read FP using protocol: JENs FP FITC Dual in room 4603. (parameters are: mirror module-FITC FP dual, excitation filter-FITC FP 480, emission filters-FITC FP P-pol 535 and FITC FP S-pol 535) Analysis of Results The Envision instrument automatically prepares a calculation based on the readings it obtains from the two measurements. […] By adjusting G to 0.96 or 0.97, the FP measurement calculation will result in a “0” reading for BODIPY GM without Hsp90. […] IC50s will be determined manually from percent polarization values plotted in Microsoft Excel. […]

[2] = system: mice; conditions: Takahashi and Bepu, J. Antibiotics 1982; cited from earlier work
[3] = system: protein synthesis; conditions: literature reports; cited from earlier work
[4] = target: Hsp90α Protein (Homo sapiens, UniProt P07900); assay: Hsp90 CE Competitive Binding Assay (displacement of fluorescein-labelled geldanamycin)
Experimental: Hsp90 CE Competitive Binding Assay: […]
b) “Competitor”, fluorescein-labelled geldanamycin • The competitor was synthesized as described by Llauger-Bufi et al, Bioorg.
The electrophoresis running buffer (RB) is comprised of 200 mM CAPSO, pH 9.2 (pH-adjusted with Trizma base). The sample buffer (SB) is comprised of 10 mM Trizma base, pH 8.0 (pH-adjusted with glacial acetic acid), 5 mM MgCl2, 5 mM DTT, and BSA and Triton as noted.
Capillary electrophoresis was performed on Cetek Gemini Systems™ using laser-induced fluorescence detection. Fused-silica capillaries (50 μm I.D.×30 cm, approximately 10 cm length from end to detection window) were internally coated using Cetek's proprietary methods.
Each sample (i.e., fermentation extract, partially-purified fraction, or compound mixture, or pure compound) to be assayed is prediluted 1:20 or 1:40 in SB containing 0.02% Triton. 1 μl of each prediluted sample is then deposited into a 96-well microtiter plate and mixed with 8 μl of Target Cocktail. These samples can be stored at 4° C. until ready for assay.
When ready for analysis, the plates are transferred to the deck of a Gemini System. To each mixture of sample and target, 1 μl of Competitor Cocktail is added and mixed thoroughly. This reaction mixture is allowed to incubate for 8 minutes on the refrigerated deck of the Gemini System (temperature 8° C.). During incubation, the CE capillary is rinsed for 30 seconds with RB containing 2 mg/ml BSA, and then 60 seconds with RB. At the end of incubation, a small plug of the reaction mixture is then injected into the capillary at low pressure (0.5 psi) for 7 seconds. The loaded capillary is then dipped into reservoirs containing RB and the sample is electrophoresed at 10 kV for 6 minutes at a temperature of 8° C.
The electrophoretic separation produces a graphical profile known as an “electropherogram,” which contains a peak representing the intact complex between Hsp90 and competitor, and a smaller series (typically, a triplet) of peaks representing unbound competitor. […] Dose-response experiments, which evaluate the degree of competitor displacement as a function of sample concentration, are subsequently run in triplicate to validate hits and to quantitate their potencies, which are expressed as IC50 values.
Negative controls are comprised of 0.5% DMSO, and positive controls are comprised of 0.1 μg/ml 17-AAG.

Row | Structure (SMILES) | pIC50 [1] | toxicity to mice [2] | inhibition of protein synthesis [3] | HSP90 inhibition / binding (in words) [4] | pIC50 ([4]; initial structure activity relationship table, read-out: HSP90 CE IC50)
1 | Nc1nc(F)nc2c1nc(Cc1cc3c(cc1I)OCO3)n2Cc1cn(CCOS(N)(=O)=O)nn1 [Example 16A, Sulfamic Acid 2-(4-((6-amino-2-fluoro-8-((6-iodobenzo[d][1,3]dioxol-5-yl)methyl)-9H-purin-9-yl)methyl)-1H-1,2,3-triazol-1-yl)ethyl ester] | 6.74 |  |  |  | 
2 | Nc1nc(F)nc2c1nc(Cc1cc3c(cc1I)OCO3)n2CC#CCN1CCC(OS(N)(=O)=O)C1 (stereo not shown) [Example 160] | 6.85 |  |  |  | 
3 | Nc1nc(F)nc2c1nc(Cc1cc3c(cc1I)OCO3)n2Cc1cn(CCCOS(N)(=O)=O)nn1 [Example 16B, Sulfamic Acid 3-[4-({6-amino-2-fluoro-8-[(6-iodo-1,3-benzodioxol-5-yl)methyl]-9H-purin-9-yl}methyl)-1H-1,2,3-triazol-1-yl]propyl ester] | 6.41 |  |  |  | 
4 | Nc1nc(Cl)nc2c1ncn2C1OC(COS(N)(=O)=O)C(O)C1O (stereo not shown) [CSA, 2-chloro-5′-sulfamoyladenosine, reference compound] |  | toxic to mice | inhibit protein synthesis | inhibits HSP90 | 6.00
